Data published in article PMC10729961, “Putative purine nucleoside interacting residues in the malaria parasite purine uptake transporter PfENT1 are critical for transporter function” (PLOS ONE, 2023).

How the values were obtained:
Assay in all cases: [3H]adenosine uptake assay, competition with cold uridine
Type in all cases: cell-based
PfENT1 A134C = biological target: T1, PfENT1 A134C (Plasmodium falciparum, UniProt Q8IDM6, A134C)
T1 construct: expressed in transfected cells; host or cells: purine auxotrophic yeast (ade2Δ, fui1Δ), pCM189 episomal plasmid
Procedure: (§1) The radiolabeled uptake assay measures the ability of an unlabeled purine or pyrimidine substrate to inhibit the uptake of radiolabeled substrate into yeast via PfENT1 as previously described. Yeast strains containing PfENT1 (mutant or WT) were grown overnight in SDM media to a final OD600 between 0.2 and 0.5. Purine auxotrophic yeast used as a negative control were grown in YPD media. Yeast were spun down and washed three times with 15 mL phosphate buffered saline (PBS; 137 mM NaCl, 2.7 mM KCl, 10 mM KH2PO4, 10 mM Na2HPO4, pH 7.4). The final volume of yeast in PBS varied but it was diluted to a final OD600 = 0.2. […] For the dilution series, unlabeled purine/pyrimidine (Fischer Scientific Cat. #12-565-501) with a starting concentration of 25 mM was serially diluted 1:3 in PBS for a final concentration range of 3.28 nM to 6.25 mM. Yeast were incubated with radioactive substrate and the unlabeled purine/pyrimidine for 15 min. […] This ensured that competition only occurred at the transporter and not at cytoplasmic metabolic enzymes, because those are different for purines and pyrimidines. For determination of minimal and maximal uptake, yeast strains were incubated without radioactivity or with radioactivity but no cold substrate competition, respectively. […] Mats were allowed to air dry and sealed in sample bags with 5 mL of BetaPlate Scint scintillant cocktail (Perkin Elmer Cat. #1205–4401). The amount of radioactivity in each well was measured by liquid scintillation counting using a 1450 MicroBeta TriLux (Perkin Elmer). The counts per minute (cpm) were recorded and technical triplicates were averaged. IC50 values were calculated, and statistical analysis was performed using GraphPad/Prism9 software. Each experiment was repeated at least three times on separate days.
(§2) Statistical significance was calculated using one-way analysis of variance (ANOVA) with GraphPad/Prism9 software. IC50 values were calculated using the non-linear regression dose-response inhibition log(inhibitor) vs normalized response program. Cpm data was background subtracted by the cpm in yeast expressing WT PfENT1 in cold purine/pyrimidine. Data was normalized to the highest value for each mutant.

PfENT1 D287C = biological target: T2, PfENT1 D287C (Plasmodium falciparum, UniProt Q8IDM6, D287C); conditions: cold uridine vs [3H]adenosine uptake, 15 min
T2 construct: expressed in transfected cells; host or cells: purine auxotrophic Saccharomyces cerevisiae (ade2Δ, fui1Δ), pCM189 episomal plasmid
Procedure: as §1, §2

PfENT1 F286C = biological target: T3, PfENT1 F286C (Plasmodium falciparum, UniProt Q8IDM6, F286C)
T3 construct: expressed in transfected cells; host or cells: purine auxotrophic yeast (ade2Δ, fui1Δ), pCM189 episomal plasmid
Procedure: as §1, §2

PfENT1 F288C = biological target: T4, PfENT1 F288C (Plasmodium falciparum, UniProt Q8IDM6, F288C)
T4 construct: expressed in transfected cells; host or cells: purine auxotrophic Saccharomyces cerevisiae (ade2Δ, fui1Δ), pCM189 episomal plasmid
Procedure: as §1, §2

PfENT1 I137C = biological target: T5, PfENT1 I137C (Plasmodium falciparum, UniProt Q8IDM6, I137C)
T5 construct: expressed in transfected cells; host or cells: purine auxotrophic yeast (ade2Δ, fui1Δ), pCM189 episomal plasmid
Procedure: as §1, §2

PfENT1 L289C = biological target: T6, PfENT1 L289C (Plasmodium falciparum, UniProt Q8IDM6, L289C)
T6 construct: expressed in transfected cells; host or cells: purine auxotrophic Saccharomyces cerevisiae (ade2Δ, fui1Δ), pCM189 episomal plasmid
Procedure: as §1, §2

PfENT1 L50C = biological target: T7, PfENT1 L50C (Plasmodium falciparum, UniProt Q8IDM6, L50C); conditions: cold uridine vs [3H]adenosine uptake, 15 min
T7 construct: expressed in transfected cells; host or cells: purine auxotrophic yeast (ade2Δ, fui1Δ), pCM189 episomal plasmid
Procedure: as §1, §2

PfENT1 N51C = biological target: T8, PfENT1 N51C (Plasmodium falciparum, UniProt Q8IDM6, N51C)
T8 construct: expressed in transfected cells; host or cells: purine auxotrophic yeast (ade2Δ, fui1Δ), pCM189 episomal plasmid
Procedure: as §1, §2

PfENT1 Q135C = biological target: T9, PfENT1 Q135C (Plasmodium falciparum, UniProt Q8IDM6, Q135C); conditions: cold uridine vs [3H]adenosine uptake, 15 min
T9 construct: expressed in transfected cells; host or cells: purine auxotrophic yeast (ade2Δ, fui1Δ), pCM189 episomal plasmid
Procedure: as §1, §2

PfENT1 R291C = biological target: T10, PfENT1 R291C (Plasmodium falciparum, UniProt Q8IDM6, R291C); conditions: cold uridine vs [3H]adenosine uptake, 15 min
T10 construct: expressed in transfected cells; host or cells: purine auxotrophic Saccharomyces cerevisiae (ade2Δ, fui1Δ), pCM189 episomal plasmid
Procedure: as §1, §2

PfENT1 S290C = biological target: T11, PfENT1 S290C (Plasmodium falciparum, UniProt Q8IDM6, S290C); conditions: cold uridine vs [3H]adenosine uptake, 15 min
T11 construct: expressed in transfected cells; host or cells: purine auxotrophic Saccharomyces cerevisiae (ade2Δ, fui1Δ), pCM189 episomal plasmid
Procedure: as §1, §2

PfENT1 S48C = biological target: T12, PfENT1 S48C (Plasmodium falciparum, UniProt Q8IDM6, S48C)
T12 construct: expressed in transfected cells; host or cells: purine auxotrophic yeast (ade2Δ, fui1Δ), pCM189 episomal plasmid
Procedure: as §1, §2

PfENT1 S49C = biological target: T13, PfENT1 S49C (Plasmodium falciparum, UniProt Q8IDM6, S49C)
T13 construct: expressed in transfected cells; host or cells: purine auxotrophic yeast (ade2Δ, fui1Δ), pCM189 episomal plasmid
Procedure: as §1, §2

PfENT1 T136C = biological target: T14, PfENT1 T136C (Plasmodium falciparum, UniProt Q8IDM6, T136C)
T14 construct: expressed in transfected cells; host or cells: purine auxotrophic yeast (ade2Δ, fui1Δ), pCM189 episomal plasmid
Procedure: as §1, §2

PfENT1 V52C = biological target: T15, PfENT1 V52C (Plasmodium falciparum, UniProt Q8IDM6, V52C)
T15 construct: expressed in transfected cells; host or cells: purine auxotrophic yeast (ade2Δ, fui1Δ), pCM189 episomal plasmid
Procedure: as §1, §2

PfENT1 W53C = biological target: T16, PfENT1 W53C (Plasmodium falciparum, UniProt Q8IDM6, W53C); conditions: cold uridine vs [3H]adenosine uptake, 15 min
T16 construct: expressed in transfected cells; host or cells: purine auxotrophic yeast (ade2Δ, fui1Δ), pCM189 episomal plasmid
Procedure: as §1, §2

WT PfENT1 = biological target: T17, WT PfENT1 (Plasmodium falciparum, UniProt Q8IDM6)
T17 construct: expressed in transfected cells; host or cells: purine auxotrophic yeast (ade2Δ, fui1Δ), pCM189 episomal plasmid
Procedure: as §1, §2

[1] = system: purine auxotrophic yeast (ade2Δ, fui1Δ); conditions: ade2Δ strain; cold uridine vs [3H]adenosine uptake, 15 min
Procedure: as §1, §2

T12 sequence (Q8IDM6 whole entry S48C): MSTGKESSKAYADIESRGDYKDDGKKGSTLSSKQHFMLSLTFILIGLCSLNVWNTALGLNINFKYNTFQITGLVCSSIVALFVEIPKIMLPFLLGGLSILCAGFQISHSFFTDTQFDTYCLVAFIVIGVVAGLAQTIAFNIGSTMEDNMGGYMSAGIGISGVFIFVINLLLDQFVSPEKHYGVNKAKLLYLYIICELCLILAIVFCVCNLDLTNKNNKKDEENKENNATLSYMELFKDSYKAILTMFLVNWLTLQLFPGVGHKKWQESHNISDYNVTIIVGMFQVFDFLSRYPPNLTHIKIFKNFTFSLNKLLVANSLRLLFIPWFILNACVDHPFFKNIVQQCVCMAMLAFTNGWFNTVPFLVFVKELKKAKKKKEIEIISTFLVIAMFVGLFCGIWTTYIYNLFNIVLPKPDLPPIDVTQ
T3 sequence (Q8IDM6 whole entry F286C): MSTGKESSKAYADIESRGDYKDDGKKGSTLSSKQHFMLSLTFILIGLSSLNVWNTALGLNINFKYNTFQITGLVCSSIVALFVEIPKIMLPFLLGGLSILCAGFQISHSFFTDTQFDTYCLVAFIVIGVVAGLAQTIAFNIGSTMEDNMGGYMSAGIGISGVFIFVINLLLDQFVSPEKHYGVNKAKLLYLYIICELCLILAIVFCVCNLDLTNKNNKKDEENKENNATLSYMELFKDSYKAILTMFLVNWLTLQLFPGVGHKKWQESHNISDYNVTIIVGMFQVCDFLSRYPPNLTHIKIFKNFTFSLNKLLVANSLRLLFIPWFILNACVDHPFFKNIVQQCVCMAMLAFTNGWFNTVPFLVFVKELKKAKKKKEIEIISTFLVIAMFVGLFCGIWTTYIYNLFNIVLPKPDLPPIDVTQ
T4 sequence (Q8IDM6 whole entry F288C): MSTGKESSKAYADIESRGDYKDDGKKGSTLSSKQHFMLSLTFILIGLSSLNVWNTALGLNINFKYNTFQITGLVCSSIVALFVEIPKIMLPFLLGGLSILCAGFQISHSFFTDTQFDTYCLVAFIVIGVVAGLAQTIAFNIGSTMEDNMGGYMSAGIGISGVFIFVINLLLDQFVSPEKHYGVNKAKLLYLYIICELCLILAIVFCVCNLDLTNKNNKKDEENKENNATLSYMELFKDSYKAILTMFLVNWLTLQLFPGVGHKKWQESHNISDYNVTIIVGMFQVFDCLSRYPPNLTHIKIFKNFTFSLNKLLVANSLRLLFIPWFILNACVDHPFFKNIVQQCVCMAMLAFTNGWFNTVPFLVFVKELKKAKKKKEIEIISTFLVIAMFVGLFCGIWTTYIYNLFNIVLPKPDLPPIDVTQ
T15 sequence (Q8IDM6 whole entry V52C): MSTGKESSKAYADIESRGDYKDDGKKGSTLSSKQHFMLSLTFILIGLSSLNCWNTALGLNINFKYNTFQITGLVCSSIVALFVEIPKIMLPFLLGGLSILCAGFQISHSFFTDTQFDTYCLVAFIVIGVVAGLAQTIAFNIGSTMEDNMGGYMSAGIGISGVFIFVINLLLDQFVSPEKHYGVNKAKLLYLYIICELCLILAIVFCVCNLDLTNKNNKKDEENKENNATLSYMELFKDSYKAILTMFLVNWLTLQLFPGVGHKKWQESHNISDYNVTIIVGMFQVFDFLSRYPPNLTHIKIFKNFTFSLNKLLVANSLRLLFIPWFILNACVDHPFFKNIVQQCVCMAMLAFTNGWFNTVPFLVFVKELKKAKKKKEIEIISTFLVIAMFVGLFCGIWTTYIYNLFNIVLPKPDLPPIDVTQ
T13 sequence (Q8IDM6 whole entry S49C): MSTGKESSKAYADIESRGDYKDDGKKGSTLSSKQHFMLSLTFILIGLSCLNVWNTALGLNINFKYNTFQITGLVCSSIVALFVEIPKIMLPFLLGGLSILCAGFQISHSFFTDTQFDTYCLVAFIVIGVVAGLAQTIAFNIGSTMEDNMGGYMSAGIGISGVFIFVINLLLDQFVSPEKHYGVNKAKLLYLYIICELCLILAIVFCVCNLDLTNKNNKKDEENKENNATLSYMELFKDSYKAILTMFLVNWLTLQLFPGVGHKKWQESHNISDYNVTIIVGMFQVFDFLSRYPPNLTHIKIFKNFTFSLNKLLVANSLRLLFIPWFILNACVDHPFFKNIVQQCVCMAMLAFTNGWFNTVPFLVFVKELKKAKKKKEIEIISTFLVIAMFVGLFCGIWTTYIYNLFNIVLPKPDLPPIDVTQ
T5 sequence (Q8IDM6 whole entry I137C): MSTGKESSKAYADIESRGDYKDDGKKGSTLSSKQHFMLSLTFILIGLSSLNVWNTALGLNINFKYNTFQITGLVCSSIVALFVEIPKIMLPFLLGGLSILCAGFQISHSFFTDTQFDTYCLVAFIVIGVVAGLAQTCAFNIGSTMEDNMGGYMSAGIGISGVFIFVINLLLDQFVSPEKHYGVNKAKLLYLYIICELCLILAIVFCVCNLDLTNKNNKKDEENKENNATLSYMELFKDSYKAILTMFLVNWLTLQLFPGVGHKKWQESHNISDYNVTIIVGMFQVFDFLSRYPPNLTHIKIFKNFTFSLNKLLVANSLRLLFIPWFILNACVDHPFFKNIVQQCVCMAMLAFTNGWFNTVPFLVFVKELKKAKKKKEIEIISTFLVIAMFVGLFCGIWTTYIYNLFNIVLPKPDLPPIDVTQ
T6 sequence (Q8IDM6 whole entry L289C): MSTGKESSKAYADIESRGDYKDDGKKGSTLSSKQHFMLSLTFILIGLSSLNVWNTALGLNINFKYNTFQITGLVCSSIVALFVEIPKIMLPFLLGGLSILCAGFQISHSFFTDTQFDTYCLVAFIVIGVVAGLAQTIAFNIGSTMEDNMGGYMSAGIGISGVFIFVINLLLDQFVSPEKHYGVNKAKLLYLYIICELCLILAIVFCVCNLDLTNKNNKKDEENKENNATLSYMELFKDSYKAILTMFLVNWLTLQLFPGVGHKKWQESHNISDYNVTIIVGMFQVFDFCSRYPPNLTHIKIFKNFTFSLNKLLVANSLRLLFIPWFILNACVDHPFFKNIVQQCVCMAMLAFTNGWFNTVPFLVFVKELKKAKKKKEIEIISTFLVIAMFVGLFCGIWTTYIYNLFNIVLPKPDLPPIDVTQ
T1 sequence (Q8IDM6 whole entry A134C): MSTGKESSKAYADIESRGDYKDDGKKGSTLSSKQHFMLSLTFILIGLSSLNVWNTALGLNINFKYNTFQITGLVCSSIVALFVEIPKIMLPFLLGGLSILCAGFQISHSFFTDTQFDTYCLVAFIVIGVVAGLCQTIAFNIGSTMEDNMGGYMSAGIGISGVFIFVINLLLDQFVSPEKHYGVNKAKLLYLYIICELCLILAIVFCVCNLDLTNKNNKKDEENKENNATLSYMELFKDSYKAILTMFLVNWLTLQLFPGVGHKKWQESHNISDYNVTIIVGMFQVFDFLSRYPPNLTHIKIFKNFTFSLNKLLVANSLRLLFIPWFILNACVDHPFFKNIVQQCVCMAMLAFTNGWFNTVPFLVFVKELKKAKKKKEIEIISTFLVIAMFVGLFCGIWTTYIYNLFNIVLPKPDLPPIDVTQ
T14 sequence (Q8IDM6 whole entry T136C): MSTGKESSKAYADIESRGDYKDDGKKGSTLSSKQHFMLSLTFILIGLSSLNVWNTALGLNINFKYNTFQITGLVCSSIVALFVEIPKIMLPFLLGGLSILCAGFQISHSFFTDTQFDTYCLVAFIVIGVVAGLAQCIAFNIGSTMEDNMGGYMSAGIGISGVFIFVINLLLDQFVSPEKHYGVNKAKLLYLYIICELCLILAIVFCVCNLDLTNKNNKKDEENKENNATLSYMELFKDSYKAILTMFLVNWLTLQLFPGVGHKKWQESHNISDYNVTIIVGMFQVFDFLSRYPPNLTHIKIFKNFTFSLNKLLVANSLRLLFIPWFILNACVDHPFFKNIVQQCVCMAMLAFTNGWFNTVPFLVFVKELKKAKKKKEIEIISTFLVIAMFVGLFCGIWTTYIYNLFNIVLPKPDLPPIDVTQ
T8 sequence (Q8IDM6 whole entry N51C): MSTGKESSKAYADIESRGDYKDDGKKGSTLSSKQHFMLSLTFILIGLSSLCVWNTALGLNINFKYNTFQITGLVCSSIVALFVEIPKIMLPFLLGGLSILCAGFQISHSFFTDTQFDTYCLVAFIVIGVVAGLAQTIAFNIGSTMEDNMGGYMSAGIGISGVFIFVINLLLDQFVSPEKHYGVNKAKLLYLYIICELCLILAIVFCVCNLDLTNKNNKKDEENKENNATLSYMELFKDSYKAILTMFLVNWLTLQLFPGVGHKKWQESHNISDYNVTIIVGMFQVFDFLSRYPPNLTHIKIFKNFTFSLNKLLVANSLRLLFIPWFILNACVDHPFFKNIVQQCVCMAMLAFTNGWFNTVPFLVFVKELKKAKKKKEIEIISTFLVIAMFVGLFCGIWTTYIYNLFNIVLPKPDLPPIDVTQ
T17 sequence (Q8IDM6 whole entry): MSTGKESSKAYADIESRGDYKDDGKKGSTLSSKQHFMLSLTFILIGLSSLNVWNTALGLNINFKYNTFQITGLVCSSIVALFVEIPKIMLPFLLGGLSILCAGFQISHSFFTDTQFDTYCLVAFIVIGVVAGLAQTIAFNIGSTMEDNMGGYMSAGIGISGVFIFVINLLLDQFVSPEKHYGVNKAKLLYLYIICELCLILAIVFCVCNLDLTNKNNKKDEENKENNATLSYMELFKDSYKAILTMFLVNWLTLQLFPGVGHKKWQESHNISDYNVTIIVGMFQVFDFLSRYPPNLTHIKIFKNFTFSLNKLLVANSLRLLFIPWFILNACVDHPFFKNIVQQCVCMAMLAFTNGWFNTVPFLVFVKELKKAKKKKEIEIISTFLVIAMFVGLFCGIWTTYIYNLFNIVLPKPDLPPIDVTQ

O=c1ccn([C@@H]2O[C@H](CO)[C@@H](O)[C@H]2O)c(=O)[nH]1 [Uridine, uridine]
IC50 (PfENT1 A134C): 1020 ± 207 µM | Mutant/WT Ratio Uridine (PfENT1 A134C; A134C, ratio of IC50 values): 1.02 | Average IC50 (μM) Uridine (PfENT1 D287C): no uptake | IC50 (PfENT1 F286C): 1210 ± 139 µM | Mutant/WT Ratio Uridine (PfENT1 F286C; F286C, ratio of IC50 values): 1.21 | IC50 (PfENT1 F288C): 850 ± 138 µM | Mutant/WT Ratio Uridine (PfENT1 F288C; F288C, ratio of IC50 values): 0.85 | IC50 (PfENT1 I137C): 904 ± 21 µM | Mutant/WT Ratio Uridine (PfENT1 I137C; I137C, ratio of IC50 values): 0.91 | IC50 (PfENT1 L289C): 905 ± 164 µM | Mutant/WT Ratio Uridine (PfENT1 L289C; L289C, ratio of IC50 values): 0.91 | Average IC50 (μM) Uridine (PfENT1 L50C): no uptake | IC50 (PfENT1 N51C): 30.9 ± 1 µM | Mutant/WT Ratio Uridine (PfENT1 N51C; N51C, ratio of IC50 values): 0.031 | Average IC50 (μM) Uridine (PfENT1 Q135C): no uptake | Average IC50 (μM) Uridine (PfENT1 R291C): no uptake | Average IC50 (μM) Uridine (PfENT1 S290C): no uptake | IC50 (PfENT1 S48C): 801 ± 46 µM | Mutant/WT Ratio Uridine (PfENT1 S48C; S48C, ratio of IC50 values): 0.8 | IC50 (PfENT1 S49C): 1060 ± 30 µM | Mutant/WT Ratio Uridine (PfENT1 S49C; S49C, ratio of IC50 values): 1.06 | IC50 (PfENT1 T136C): 786 ± 87 µM | Mutant/WT Ratio Uridine (PfENT1 T136C; T136C, ratio of IC50 values): 0.79 | IC50 (PfENT1 V52C): 2820 ± 1440 µM | Mutant/WT Ratio Uridine (PfENT1 V52C; V52C, ratio of IC50 values): 2.83 | Average IC50 (μM) Uridine (PfENT1 W53C): no uptake | IC50 (WT PfENT1): 997 ± 90 µM | Average IC50 (μM) Uridine [1]: no uptake
